Here are results for three compounds from patent US20240423980A1, “METHODS OF PREVENTING A VENOUS THROMBOEMBOLIC EVENT” (Board of Supervisors of Louisiana State University and …, priority 2023, published 2024).

In data set [1] the test system is patients with mild-to-moderate COPD. The settings on record: cited from earlier work.
Another data set concerns the target T1, ITGA9-VCAM1 binding (Homo sapiens, UniProt Q13797).
T1 construct: purchased R&D Systems
The data set can be described thus: ITGA9 binding assay (ITGA9-VCAM1 binding, cell-free). As to the method: Turning next to FIG. 2, another aspect of the invention is shown as a ITGA9 binding assay. Briefly, purified human VCAM1 (R&D Systems) diluted to 5 μg/ml in TBS+ buffer (25 mM Tris pH 7.4, 137 mM NaCl, 2.7 mM KCl, 1 mM CaCl2, 1 Mm MgCl2, 1 mM MnC12) was added to wells of a 96-well transparent microtiter plate and incubated overnight at 4° C. Wells were washed 3 times with buffer and blocking buffer (TBS+ with 1% bovine serum albumin) was added followed by incubation for 1 hour at 37° C., and then washing. Recombinant human integrin ITGA9 (R&D Systems) was diluted to 1 μg/ml in TBS+/0.1% bovine serum albumin. Macitentan was diluted into the integrin solution and added to the washed ligand-coated plate according to a standard template with each sample repeated in triplicate. After incubation for 2 hours at room temperature, the plate was washed 3 times with 150 μl TBS+ buffer. To each well, biotinylated anti-β1 (catalog BAF1778, R&D Systems) at 1 μg/ml in TBS+/0.1% BSA was added, and the plate covered and incubated for 1 hour at RT. After washing the plate 3 times with TBS+ buffer, streptavidin conjugated horseradish peroxidase (R&D Systems) diluted in TBS+ blocking buffer was added to the wells and the plate incubated for 20 minutes at room temperature. […] After incubation for 20 minutes at RT, plates were read by colorimetric detection at 450 nm wavelength. […]

For the next data set, the system named is wild-type mice. Briefly: In vivo venous thrombosis using IVC stenosis (DVT surgery). The conditions noted are these: 10 mg/kg; measured at 24-hr; vs vehicle; FIG. 3. Details: species or system mouse. As to the method: Next, we performed in vivo venous thrombosis using IVC stenosis (DVT surgery) in 30 wild-type mice and randomized them into control (vehicle, n=15) and treatment (Macitentan, 10 mg/kg, n=15) groups. The thrombus weight and incidence were measured at 24-hr.

In the next data set the test system is mice with lung cancer. The data set can be described thus: IVC stenosis DVT in mice with lung cancer (LLC1 cells). The conditions noted are these: thrombus harvested 48-hour post-stenosis, FIG. 23. Format: in vivo, mouse. As to the method:
Lewis lung carcinoma (LLC1) cell line will be obtained from American Type Culture Collection (ATCC). The cell line was originally derived from a Lewis lung carcinoma of a C57BL mouse strain. The cells will be grown in Dulbecco's Modified Eagle Medium (DMEM) supplemented with 10% FCS, 2 mM L-glutamine, 100 U/ml penicillin, 100 μg/ml streptomycin, and 0.1% fungizone. The cells will be maintained at 37° C. in a humidified atmosphere with 5% CO2. The LLC1 cells (100 μL) will be injected once intravenously.
Macitentan at the dose of 2, 5 and 10 mg/kg will be administered orally once a day from the day of cancer induction until the end of the study.
Deep vein thrombosis (DVT) will be induced in mice after 14 days of tumor induction. Briefly, anesthetized mice will undergo laparotomy, the intestine will be exteriorized, and the intra renal IVC will be exposed. The IVC will then be dissected away from the aorta. For stenosis, IVC will be exposed, a space holder (30-gauge, 3-mm long needle) will be positioned on the outside of the vessel, and a permanent narrowing ligature will be placed exactly below the left renal vein. Subsequently, the needle will be removed to restrict blood flow to 80-90%. […]
Thrombus size and thrombosis incidence on day 1 and day 2 following DVT surgery will be evaluated by ultrasonography. […]

Data set [2] deals with Src family of protein tyrosine kinases. The settings on record: cited from earlier work.
The target in another data set is Src (Mus musculus, UniProt P05480). The conditions noted are these: in vivo dose of 1.5 mg/kg; cited from earlier work.
Src, sequence (P05480 whole entry): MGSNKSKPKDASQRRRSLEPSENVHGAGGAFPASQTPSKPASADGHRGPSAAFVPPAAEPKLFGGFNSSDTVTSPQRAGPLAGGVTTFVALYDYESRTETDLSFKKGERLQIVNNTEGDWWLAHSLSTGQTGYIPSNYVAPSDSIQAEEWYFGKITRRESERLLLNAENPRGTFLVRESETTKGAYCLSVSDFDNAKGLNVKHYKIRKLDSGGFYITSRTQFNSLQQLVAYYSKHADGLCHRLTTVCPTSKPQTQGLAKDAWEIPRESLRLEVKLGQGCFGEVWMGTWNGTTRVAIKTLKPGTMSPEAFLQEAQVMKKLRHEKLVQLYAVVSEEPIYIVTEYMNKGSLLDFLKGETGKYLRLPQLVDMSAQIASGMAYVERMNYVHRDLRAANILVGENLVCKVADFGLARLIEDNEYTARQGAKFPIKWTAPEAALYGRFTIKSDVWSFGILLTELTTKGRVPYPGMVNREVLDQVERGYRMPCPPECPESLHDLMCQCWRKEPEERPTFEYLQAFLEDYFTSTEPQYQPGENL

T1 sequence (Q13797 30-981 limits assumed): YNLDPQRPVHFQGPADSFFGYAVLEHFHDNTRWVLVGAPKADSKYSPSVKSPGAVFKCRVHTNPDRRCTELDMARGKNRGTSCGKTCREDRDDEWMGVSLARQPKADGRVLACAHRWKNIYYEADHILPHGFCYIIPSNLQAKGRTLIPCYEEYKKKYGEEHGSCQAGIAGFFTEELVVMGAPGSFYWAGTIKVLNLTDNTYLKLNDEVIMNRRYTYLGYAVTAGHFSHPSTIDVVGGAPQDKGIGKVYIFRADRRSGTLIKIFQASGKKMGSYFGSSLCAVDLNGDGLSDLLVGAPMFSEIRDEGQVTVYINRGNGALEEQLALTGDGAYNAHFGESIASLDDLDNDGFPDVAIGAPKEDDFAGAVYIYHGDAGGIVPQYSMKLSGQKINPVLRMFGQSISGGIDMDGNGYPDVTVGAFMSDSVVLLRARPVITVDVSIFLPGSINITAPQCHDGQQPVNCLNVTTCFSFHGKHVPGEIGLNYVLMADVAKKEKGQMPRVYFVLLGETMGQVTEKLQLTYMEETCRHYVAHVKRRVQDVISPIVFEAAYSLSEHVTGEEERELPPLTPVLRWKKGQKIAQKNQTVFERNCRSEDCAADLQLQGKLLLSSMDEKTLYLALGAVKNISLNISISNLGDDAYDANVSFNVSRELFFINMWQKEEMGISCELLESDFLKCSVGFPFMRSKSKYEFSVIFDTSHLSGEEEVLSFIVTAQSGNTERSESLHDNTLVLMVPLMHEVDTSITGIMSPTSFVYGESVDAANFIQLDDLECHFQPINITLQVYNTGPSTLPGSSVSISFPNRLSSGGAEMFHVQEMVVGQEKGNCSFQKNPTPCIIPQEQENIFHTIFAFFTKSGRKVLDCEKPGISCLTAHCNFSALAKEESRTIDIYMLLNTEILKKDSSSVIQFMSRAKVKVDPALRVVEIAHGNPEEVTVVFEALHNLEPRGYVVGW
T1 sequence (P05556 21-728 partner limits assumed): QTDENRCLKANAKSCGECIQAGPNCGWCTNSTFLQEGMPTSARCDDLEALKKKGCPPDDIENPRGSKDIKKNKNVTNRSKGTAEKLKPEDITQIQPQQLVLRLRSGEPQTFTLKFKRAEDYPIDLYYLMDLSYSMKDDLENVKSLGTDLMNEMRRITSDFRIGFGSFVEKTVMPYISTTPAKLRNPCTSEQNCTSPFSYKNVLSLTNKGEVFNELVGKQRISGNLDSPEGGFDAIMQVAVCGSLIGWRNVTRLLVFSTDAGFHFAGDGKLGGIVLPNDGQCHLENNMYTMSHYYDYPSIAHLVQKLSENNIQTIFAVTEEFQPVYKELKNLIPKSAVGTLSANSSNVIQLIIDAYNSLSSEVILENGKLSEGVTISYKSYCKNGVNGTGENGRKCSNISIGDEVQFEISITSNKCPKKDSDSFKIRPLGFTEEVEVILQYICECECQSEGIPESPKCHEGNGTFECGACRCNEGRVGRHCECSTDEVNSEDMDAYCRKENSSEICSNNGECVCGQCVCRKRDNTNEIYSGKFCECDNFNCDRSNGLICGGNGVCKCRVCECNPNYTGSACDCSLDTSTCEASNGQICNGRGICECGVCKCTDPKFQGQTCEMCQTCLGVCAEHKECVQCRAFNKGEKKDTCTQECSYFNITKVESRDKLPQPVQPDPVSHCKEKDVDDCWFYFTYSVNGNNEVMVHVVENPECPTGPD

`Cc1c(F)cccc1NC(=O)Nc1ccc(Cl)c(S(=O)(=O)[C@H]2CCCNC2)c1O` [Danirixin]: the number of pneumonias result in data set [1] (danirixin 50 mg) is on record as “increased number of pneumonias”. In addition, the incidence of exacerbation result in data set [1] (danirixin-treated groups, COPD patients) is given as “increased incidence of exacerbation”.
Regarding `CCCNS(=O)(=O)Nc1ncnc(OCCOc2ncc(Br)cn2)c1-c1ccc(Br)cc1` [Macitentan], on ITGA9-VCAM1 binding, the “binds to integrin α9 and inhibits its interactions with VCAM-1” value is recorded as “inhibits its interactions with VCAM-1”. The “inhibition of ITGA9-VCAM1 binding” value at ITGA9-VCAM1 binding (Macitentan at 1 μM, FIG. 2) is “significantly inhibited”. Moreover, in the data set with wild-type mice, the thrombosis incidence entry was “significantly reduced” and the thrombus weight result is on record as “significantly reduced”. Besides, the “DVT severity (IVC thrombus weight)” value in the data set with mice with lung cancer is “significantly reduced”.
As usually defined, the IC50 is the midpoint of a concentration-inhibition curve. For the compound `Cc1ccc(-c2nn(C(C)(C)C)c3ncnc(N)c23)cc1` [PP1], the IC50 in data set [2] was 170 nM. Moreover, the “inhibition of Src in vivo” value on Src was “significant inhibition”.
